Reference: US10947271B2, “Antibacterial agents” (THE UNIVERSITY OF QUEENSLAND, priority 2014, dated 2021)

Legend:
Format in all cases: cell-based
Settings in all cases: 24 h incubation, visual reading
[1] = system: Staphylococcus aureus MRSA ATCC 43300; test: MIC assay, S. aureus MRSA ATCC 43300
Outline: (§1)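 Mid-log cultures in MHB were added at 5×10e5 CFU/mL to compounds diluted twofold from 8 to 0.003 μg/ml. Visual inspection after 24 h incubation at 37° C. gave the MIC, the lowest concentration without visible growth.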

[2] = system: Streptococcus pneumoniae MDR ATCC 700677; test: MIC assay, S. pneumoniae MDR ATCC 700677
Outline: as §1

[3] = system: Enterococcus faecium MDR Van A ATCC 51559; test: MIC assay, E. faecium MDR Van A ATCC 51559
Outline: as §1

Minimum Inhibitory Concentration (MIC) Staph. aureus ATCC43300 [1]	Minimum Inhibitory Concentration (MIC) S. pneumoniae ATCC 700677 [2]	Minimum Inhibitory Concentration (MIC) E. faecium ATCC51559 [3]	Compound
xxxx (xxxx = 0.01-<0.1)	xxxx (xxxx = 0.01-<0.1)	x (x = >4)	CCCCCCCCCC(=O)N[C@@H](CCCNC(=N)N)C(=O)N[C@@H](CCCNC(=N)N)C(=O)N[C@@H](CCCCNC(=O)[C@H]1NC(=O)[C@H]2NC(=O)[C@H](NC(=O)[C@@H]3NC(=O)[C@H](CC(N)=O)NC(=O)[C@H](NC(=O)[C@@H](CC(C)C)NC)[C@H](O)c4ccc(c(Cl)c4)Oc4cc3cc(c4O[C@@H]3O[C@H](CO)[C@@H](O)[C@H](O)[C@H]3O[C@H]3C[C@](C)(N)[C@H](O)[C@H](C)O3)Oc3ccc(cc3Cl)[C@H]2O)c2ccc(O)c(c2)-c2c(O)cc(O)cc21)C(=O)O [MCC_005507]
xxx (xxx = 0.1-<1)	xxx (xxx = 0.1-<1)	x (x = >4)	CCCCCCCCCC(=O)N[C@@H](CCCCN(CC)CC)C(=O)N[C@@H](CCCCNC(=O)[C@H]1NC(=O)[C@H]2NC(=O)[C@H](NC(=O)[C@@H]3NC(=O)[C@H](CC(N)=O)NC(=O)[C@H](NC(=O)[C@@H](CC(C)C)NC)[C@H](O)c4ccc(c(Cl)c4)Oc4cc3cc(c4O[C@@H]3O[C@H](CO)[C@@H](O)[C@H](O)[C@H]3O[C@H]3C[C@](C)(N)[C@H](O)[C@H](C)O3)Oc3ccc(cc3Cl)[C@H]2O)c2ccc(O)c(c2)-c2c(O)cc(O)cc21)C(=O)O [MCC_007330]
xx (xx = 1-4)	xx (xx = 1-4)	x (x = >4)	CCCCCCCCCC(=O)N[C@@H](CCCCN1CCOCC1)C(=O)N[C@@H](CCCCNC(=O)[C@H]1NC(=O)[C@H]2NC(=O)[C@H](NC(=O)[C@@H]3NC(=O)[C@H](CC(N)=O)NC(=O)[C@H](NC(=O)[C@@H](CC(C)C)NC)[C@H](O)c4ccc(c(Cl)c4)Oc4cc3cc(c4O[C@@H]3O[C@H](CO)[C@@H](O)[C@H](O)[C@H]3O[C@H]3C[C@](C)(N)[C@H](O)[C@H](C)O3)Oc3ccc(cc3Cl)[C@H]2O)c2ccc(O)c(c2)-c2c(O)cc(O)cc21)C(=O)O [MCC_007379]
xxx (xxx = 0.1-<1)	xx (xx = 1-4)	x (x = >4)	CCCCCCCCC(=O)NC(CCCC[N+](C)(C)C)C(=O)NCCCNC(=O)C1NC(=O)C2NC(=O)C(NC(=O)C3NC(=O)C(CC(N)=O)NC(=O)C(NC(=O)C(CC(C)C)NC)C(O)c4ccc(c(Cl)c4)Oc4cc3cc(c4OC3OC(CO)C(O)C(O)C3OC3CC(C)(N)C(O)C(C)O3)Oc3ccc(cc3Cl)C2O)c2ccc(O)c(c2)-c2c(O)cc(O)cc21 (stereo not drawn) [MCC_007388]
xxxx (xxxx = 0.01-<0.1)	xxx (xxx = 0.1-<1)	x (x = >4)	CNC(CC(C)C)C(=O)NC1C(=O)NC(CC(N)=O)C(=O)NC2C(=O)NC3C(=O)NC(C(=O)NC(C(=O)NCCCNC(=O)C(CCCCN)NC(=O)c4ccc(C(F)(F)F)cc4)c4cc(O)cc(O)c4-c4cc3ccc4O)C(O)c3ccc(c(Cl)c3)Oc3cc2cc(c3OC2OC(CO)C(O)C(O)C2OC2CC(C)(N)C(O)C(C)O2)Oc2ccc(cc2Cl)C1O (stereo not drawn) [MCC_007408]

Further lines, the molecule ahead of its results:

Compound	Minimum Inhibitory Concentration (MIC) Staph. aureus ATCC43300 [1]	Minimum Inhibitory Concentration (MIC) S. pneumoniae ATCC 700677 [2]	Minimum Inhibitory Concentration (MIC) E. faecium ATCC51559 [3]
CN[C@H](CC(C)C)C(=O)N[C@H]1C(=O)N[C@@H](CC(N)=O)C(=O)N[C@H]2C(=O)N[C@H]3C(=O)N[C@H](C(=O)N[C@H](C(=O)NCCCC[C@H](NC(=O)[C@H](CCCCN(C)C)NC(=O)c4ccc(Cl)cc4)C(=O)O)c4cc(O)cc(O)c4-c4cc3ccc4O)[C@H](O)c3ccc(c(Cl)c3)Oc3cc2cc(c3O[C@@H]2O[C@H](CO)[C@@H](O)[C@H](O)[C@H]2O[C@H]2C[C@](C)(N)[C@H](O)[C@H](C)O2)Oc2ccc(cc2Cl)[C@H]1O [MCC_007219]	xx (xx = 1-4)	x (x = >4)	x (x = >4)
CCCCCCCCCC(=O)N[C@@H](CCCCN1CCCCC1)C(=O)N[C@@H](CCCCNC(=O)[C@H]1NC(=O)[C@H]2NC(=O)[C@H](NC(=O)[C@@H]3NC(=O)[C@H](CC(N)=O)NC(=O)[C@H](NC(=O)[C@@H](CC(C)C)NC)[C@H](O)c4ccc(c(Cl)c4)Oc4cc3cc(c4O[C@@H]3O[C@H](CO)[C@@H](O)[C@H](O)[C@H]3O[C@H]3C[C@](C)(N)[C@H](O)[C@H](C)O3)Oc3ccc(cc3Cl)[C@H]2O)c2ccc(O)c(c2)-c2c(O)cc(O)cc21)C(=O)O [MCC_007328]	xxx (xxx = 0.1-<1)	xxx (xxx = 0.1-<1)	x (x = >4)
CCCCCCCCCCC(=O)NC(CCCNC(=N)N)C(=O)NCCCNC(=O)C1NC(=O)C2NC(=O)C(NC(=O)C3NC(=O)C(CC(N)=O)NC(=O)C(NC(=O)C(CC(C)C)NC)C(O)c4ccc(c(Cl)c4)Oc4cc3cc(c4OC3OC(CO)C(O)C(O)C3OC3CC(C)(N)C(O)C(C)O3)Oc3ccc(cc3Cl)C2O)c2ccc(O)c(c2)-c2c(O)cc(O)cc21 (stereo not drawn) [MCC_007337]	xxxxx (xxxxx = <0.01)	xxxxx (xxxxx = <0.01)	xx (xx = 1-4)
CCCCCCCCCC(=O)NC(CCCCN(C)C)C(=O)NCCCNC(=O)C1NC(=O)C2NC(=O)C(NC(=O)C3NC(=O)C(CC(N)=O)NC(=O)C(NC(=O)C(CC(C)C)NC)C(O)c4ccc(c(Cl)c4)Oc4cc3cc(c4OC3OC(CO)C(O)C(O)C3OC3CC(C)(N)C(O)C(C)O3)Oc3ccc(cc3Cl)C2O)c2ccc(O)c(c2)-c2c(O)cc(O)cc21 (stereo not drawn) [MCC_007339]	xxxx (xxxx = 0.01-<0.1)	xxxx (xxxx = 0.01-<0.1)	xx (xx = 1-4)
CCCCCCCCCCC(=O)NC(CCCCN(C)C)C(=O)NCCCNC(=O)C1NC(=O)C2NC(=O)C(NC(=O)C3NC(=O)C(CC(N)=O)NC(=O)C(NC(=O)C(CC(C)C)NC)C(O)c4ccc(c(Cl)c4)Oc4cc3cc(c4OC3OC(CO)C(O)C(O)C3OC3CC(C)(N)C(O)C(C)O3)Oc3ccc(cc3Cl)C2O)c2ccc(O)c(c2)-c2c(O)cc(O)cc21 (stereo not drawn) [MCC_007340]	xxxxx (xxxxx = <0.01)	xxxx (xxxx = 0.01-<0.1)	xx (xx = 1-4)
CCCCCCCCC(=O)N[C@@H](CCCNC(=N)N)C(=O)N[C@@H](CCCCNC(=O)[C@H]1NC(=O)[C@H]2NC(=O)[C@H](NC(=O)[C@@H]3NC(=O)[C@H](CC(N)=O)NC(=O)[C@H](NC(=O)[C@@H](CC(C)C)NC)[C@H](O)c4ccc(c(Cl)c4)Oc4cc3cc(c4O[C@@H]3O[C@H](CO)[C@@H](O)[C@H](O)[C@H]3O[C@H]3C[C@](C)(N)[C@H](O)[C@H](C)O3)Oc3ccc(cc3Cl)[C@H]2O)c2ccc(O)c(c2)-c2c(O)cc(O)cc21)C(=O)O [MCC_007385]	xxx (xxx = 0.1-<1)	xxx (xxx = 0.1-<1)	x (x = >4)
CCCCCCCCC(=O)N[C@@H](CCCCN(C)C)C(=O)N[C@@H](CCCCNC(=O)[C@H]1NC(=O)[C@H]2NC(=O)[C@H](NC(=O)[C@@H]3NC(=O)[C@H](CC(N)=O)NC(=O)[C@H](NC(=O)[C@@H](CC(C)C)NC)[C@H](O)c4ccc(c(Cl)c4)Oc4cc3cc(c4O[C@@H]3O[C@H](CO)[C@@H](O)[C@H](O)[C@H]3O[C@H]3C[C@](C)(N)[C@H](O)[C@H](C)O3)Oc3ccc(cc3Cl)[C@H]2O)c2ccc(O)c(c2)-c2c(O)cc(O)cc21)C(=O)O [MCC_007386]	xx (xx = 1-4)	xx (xx = 1-4)	x (x = >4)
